Tested on: 282377-053-R-J1-PDC complex spheroids, viability
Test: Anticancer human tumor 282377-053-R-J1-PDC patient-derived colon adenocarcinoma cell line growth inhibition [GQUAD]
Conditions: for IC50: curve of first compound; for viability, T/C: stronger effect = lower value
Method in brief: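 Viability of tumor cells grown as complex spheroids with endothelial and stromal cells, exposed to drug combinations. Top concentration at or near clinical Cmax (else 10 microM), diluted in half-log increments.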
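Further: spheroids exposed to compounds for 7 days before readout.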
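Wherever viability, T/C is given: percent of vehicle DMSO control viability with 100% = untreated-like growth.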

Structure (SMILES): COc1ccc([C@@H](O)c2cc(-c3ncnc4cc(N5CCOCC5)ccc34)c(F)cc2Cl)nn1 + Cc1[nH]c2ccc(F)cc2c1-c1nc2c3cccnc3c3ncccc3c2[nH]1
- IC50 (second compound 0.0316 µM): > 10 µM
- IC50 (second compound 0.1 µM): > 10 µM
- IC50 (second compound 0.316 µM): > 10 µM
- IC50 (second compound 1 µM): > 10 µM
- IC50 (second compound 3.16 µM): 0.432 µM
- IC50 (second compound 10 µM): < 0.0316 µM
- viability, T/C (second compound 0.0316 µM, first compound 0.0316 µM): 101%
- viability, T/C (second compound 0.0316 µM, first compound 0.1 µM): 91.3%
- viability, T/C (second compound 0.0316 µM, first compound 0.316 µM): 102%
- viability, T/C (second compound 0.0316 µM, first compound 1 µM): 73.9%
- viability, T/C (second compound 0.0316 µM, first compound 3.16 µM): 76.3%
- viability, T/C (second compound 0.0316 µM, first compound 10 µM): 63.8%
- viability, T/C (second compound 0.1 µM, first compound 0.0316 µM): 107%
- viability, T/C (second compound 0.1 µM, first compound 0.1 µM): 101%
- viability, T/C (second compound 0.1 µM, first compound 0.316 µM): 97.9%
- viability, T/C (second compound 0.1 µM, first compound 1 µM): 84.9%
- viability, T/C (second compound 0.1 µM, first compound 3.16 µM): 72%
- viability, T/C (second compound 0.1 µM, first compound 10 µM): 61.1%
- viability, T/C (second compound 0.316 µM, first compound 0.0316 µM): 87.8%
- viability, T/C (second compound 0.316 µM, first compound 0.1 µM): 93%
- viability, T/C (second compound 0.316 µM, first compound 0.316 µM): 73.8%
- viability, T/C (second compound 0.316 µM, first compound 1 µM): 93.7%
- viability, T/C (second compound 0.316 µM, first compound 3.16 µM): 75.3%
- viability, T/C (second compound 0.316 µM, first compound 10 µM): 60.6%
- viability, T/C (second compound 1 µM, first compound 0.0316 µM): 86.5%
- viability, T/C (second compound 1 µM, first compound 0.1 µM): 88.5%
- viability, T/C (second compound 1 µM, first compound 0.316 µM): 94.7%
- viability, T/C (second compound 1 µM, first compound 1 µM): 97.1%
- viability, T/C (second compound 1 µM, first compound 3.16 µM): 88.2%
- viability, T/C (second compound 1 µM, first compound 10 µM): 57.4%
- viability, T/C (second compound 3.16 µM, first compound 0.0316 µM): 75.7%
- viability, T/C (second compound 3.16 µM, first compound 0.1 µM): 68.6%
- viability, T/C (second compound 3.16 µM, first compound 0.316 µM): 47.2%
- viability, T/C (second compound 3.16 µM, first compound 1 µM): 42.8%
- viability, T/C (second compound 3.16 µM, first compound 3.16 µM): 33.2%
- viability, T/C (second compound 3.16 µM, first compound 10 µM): 15.9%
- viability, T/C (second compound 10 µM, first compound 0.0316 µM): 44.8%
- viability, T/C (second compound 10 µM, first compound 0.1 µM): 47.4%
- viability, T/C (second compound 10 µM, first compound 0.316 µM): 33.6%
- viability, T/C (second compound 10 µM, first compound 1 µM): 26.3%
- viability, T/C (second compound 10 µM, first compound 3.16 µM): 19.6%
- viability, T/C (second compound 10 µM, first compound 10 µM): 21.1%

From PubChem BioAssay AID2060501 (Molecular Pharmacology Branch, DTP, NCI, 2025)
